In ChEMBL document CHEMBL4819064, “Discovery of new pyrimidopyrrolizine/indolizine-based derivatives as P-glycoprotein inhibitors: Design, synthesis, cytotoxicity, and MDR reversal activities” (Eur J Med Chem, 2021):

Experiments:
[1] = test system: MCF7; assay: Cell cycle arrest in human MCF7 cells assessed as accumulation at G1 phase at 0.250 uM incubated for 72 hrs by PI staining based flow cytometric analysis (reference value: 56.9 +/- 5.6 %); assay type: functional; conditions: dose 0.25 µM
[2] = test system: NCI/ADR-RES; assay: Synergistic cytotoxicity against human MCF7/ADR cells assessed as combination index at 0.25 uM after 72 hrs in presence of 0.5 uM doxorubicin by MTT assay; assay type: functional
[3] = test system: MCF7; assay: Induction of apoptosis in human MCF7 cells assessed as necrotic cells at 0.125 uM after 72 hrs by Annexin V-FITC/propidium iodide staining-based flow cytometric analysis (reference value: 6.2 %); assay type: functional
[4] = test system: NCI/ADR-RES; assay: Synergistic cytotoxicity against human MCF7/ADR cells assessed as combination index at 1 uM after 72 hrs in presence of 0.5 uM doxorubicin by MTT assay; assay type: functional
[5] = test system: MCF7; assay: Cell cycle arrest in human MCF7 cells assessed as accumulation at G1 phase at 0.5 uM incubated for 72 hrs by PI staining based flow cytometric analysis (reference value: 56.9 +/- 5.6 %); assay type: functional
[6] = test system: NCI/ADR-RES; assay: Cytotoxicity against human MCF7/ADR cells assessed as reduction in cell viability incubated for 72 hrs by MTT assay
[7] = molecular target: T1, ATP-dependent translocase ABCB1 (Homo sapiens, UniProt P08183); assay: Inhibition of P-gp activity in human MCF7/ADR cells at 250 nM after 72 hrs by RT-PCR analysis relative to control; assay type: cell-based, NCI/ADR-RES; conditions: nci/adr-res, 72 h, 0.25 µM
[8] = test system: MCF7; assay: Induction of apoptosis in human MCF7 cells assessed as early apoptotic cells at 0.125 uM after 72 hrs by Annexin V-FITC/propidium iodide staining-based flow cytometric analysis (reference value: 4.6 %); assay type: functional
[9] = test system: MCF7; assay: Induction of apoptosis in human MCF7 cells assessed as late apoptotic cells at 0.125 uM after 72 hrs by Annexin V-FITC/propidium iodide staining-based flow cytometric analysis (reference value: 2.8 %); assay type: functional
[10] = Selectivity index, ratio of IC50 for human MRC5 cells to IC50 for human MCF7 cells; assay type: toxicity; conditions: MRC5 cells versus MCF7 cells, read-out: Ratio IC50
[11] = test system: MCF7; assay: Induction of apoptosis in human MCF7 cells assessed as viable cells at 0.250 uM after 72 hrs by Annexin V-FITC/propidium iodide staining-based flow cytometric analysis (reference value: 86.4 %); assay type: functional; conditions: read-out: Activity
[12] = test system: MCF7; assay: Cell cycle arrest in human MCF7 cells assessed as accumulation at S phase at 0.5 uM incubated for […] staining based flow cytometric analysis (reference value: […] +/- 2.6 %); assay type: functional
[13] = test system: A2780; assay: Cytotoxicity against human A2780 cells assessed as reduction in cell viability incubated for 72 hrs by MTT assay; conditions: A2780, 72 h
[14] = test system: NCI/ADR-RES; assay: Synergistic cytotoxicity against human MCF7/ADR cells assessed as combination index at 1 uM after 72 hrs in presence of 1 uM doxorubicin by MTT assay; assay type: functional
[15] = test system: NCI/ADR-RES; assay: Cytotoxicity against human MCF7/ADR cells assessed as reduction in cell viability incubated for 72 hrs in presence of doxorubicin by MTT assay; assay type: functional, cell-based
[16] = Selectivity index, ratio of IC50 for human MRC5 cells to IC50 for human HT29 cells; assay type: toxicity; conditions: MRC5 cells versus HT29 cells, read-out: Ratio IC50
[17] = test system: MCF7; assay: Cell cycle arrest in human MCF7 cells assessed as accumulation at G2/M phase at 0.125 uM incubated for […] staining based flow cytometric analysis (reference value: 15 +/- 1.5 %); assay type: functional
[18] = test system: MCF7; assay: Cytotoxicity against human MCF7 cells assessed as reduction in cell viability incubated for 72 hrs by MTT assay; assay type: functional, cell-based; conditions: MCF7, 72 h
[19] = test system: MCF7; assay: Cell cycle arrest in human MCF7 cells assessed as accumulation at S phase at 0.125 uM incubated for 72 hrs by PI staining based flow cytometric analysis (reference value: […] +/- 2.6 %); assay type: functional
[20] = test system: MCF7; assay: Induction of apoptosis in human MCF7 cells assessed as viable cells at 0.5 uM after 72 hrs by Annexin V-FITC/propidium iodide staining-based flow cytometric analysis (reference value: 86.4 %); assay type: functional; conditions: read-out: Activity
[21] = molecular target: T1, ATP-dependent translocase ABCB1; assay: Inhibition of P-gp activity in human MCF7/ADR cells at 500 nM after 72 hrs by RT-PCR analysis relative to control; assay type: cell-based, NCI/ADR-RES; conditions: nci/adr-res, 72 h, 0.5 µM
[22] = test system: NCI/ADR-RES; assay: Synergistic cytotoxicity against human MCF7/ADR cells assessed as combination index at 0.5 uM after 72 hrs in presence of 0.5 uM doxorubicin by MTT assay; assay type: functional
[23] = test system: MCF7; assay: Cell cycle arrest in human MCF7 cells assessed as accumulation at S phase at 0.250 uM incubated for 72 hrs by PI staining based flow cytometric analysis (reference value: […] +/- 2.6 %); assay type: functional; conditions: dose 0.25 µM
[24] = molecular target: T1, ATP-dependent translocase ABCB1; assay: Inhibition of P-gp in human MCF7/ADR cells assessed as increase in Rho123 accumulation measured after 2 hrs by flow cytometry; assay type: cell-based; conditions: nci/adr-res
[25] = test system: NCI/ADR-RES; assay: Synergistic cytotoxicity against human MCF7/ADR cells assessed as combination index at 0.5 uM after 72 hrs in presence of 0.25 uM doxorubicin by MTT assay; assay type: functional
[26] = test system: MCF7; assay: Induction of apoptosis in human MCF7 cells assessed as late apoptotic cells at 0.250 uM after 72 hrs by Annexin V-FITC/propidium iodide staining-based flow cytometric analysis (reference value: 2.8 %); assay type: functional; conditions: dose 0.25 µM
[27] = test system: MCF7; assay: Induction of apoptosis in human MCF7 cells assessed as early apoptotic cells at 0.5 uM after 72 hrs by Annexin V-FITC/propidium iodide staining-based flow cytometric analysis (reference value: 4.6 %); assay type: functional
[28] = test system: MCF7; assay: Cell cycle arrest in human MCF7 cells assessed as accumulation at pre-G1 phase at 0.250 uM incubated for 72 hrs by PI staining based flow cytometric analysis (reference value: 1.6 +/- 0.2 %); assay type: functional; conditions: dose 0.25 µM
[29] = test system: MCF7; assay: Induction of apoptosis in human MCF7 cells assessed as late apoptotic cells at 0.5 uM after 72 hrs by Annexin V-FITC/propidium iodide staining-based flow cytometric analysis (reference value: 2.8 %); assay type: functional
[30] = Reversal of multidrug resistant activity in human MCF7/ADR cells assessed as reversal fold after 72 hrs by MTT assay; assay type: functional, NCI/ADR-RES
[31] = molecular target: T1, ATP-dependent translocase ABCB1; assay: Inhibition of P-gp activity in human MCF7/ADR cells after 72 hrs by RT-PCR analysis; assay type: cell-based; conditions: nci/adr-res, at 125 to 1000 nM, dose 125-1000 nM
[32] = test system: MCF7; assay: Cell cycle arrest in human MCF7 cells assessed as accumulation at G2/M phase at 0.5 uM incubated for 72 hrs by PI staining based flow cytometric analysis (reference value: 15 +/- 1.5 %); assay type: functional
[33] = test system: MCF7; assay: Induction of apoptosis in human MCF7 cells assessed as necrotic cells at 0.5 uM after 72 hrs by Annexin V-FITC/propidium iodide staining-based flow cytometric analysis (reference value: 6.2 %); assay type: functional
[34] = test system: MCF7; assay: Cell cycle arrest in human MCF7 cells assessed as accumulation at G2/M phase at 0.250 uM incubated for 72 hrs by PI staining based flow cytometric analysis (reference value: 15 +/- 1.5 %); assay type: functional; conditions: dose 0.25 µM

T1 sequence (P08183 whole entry): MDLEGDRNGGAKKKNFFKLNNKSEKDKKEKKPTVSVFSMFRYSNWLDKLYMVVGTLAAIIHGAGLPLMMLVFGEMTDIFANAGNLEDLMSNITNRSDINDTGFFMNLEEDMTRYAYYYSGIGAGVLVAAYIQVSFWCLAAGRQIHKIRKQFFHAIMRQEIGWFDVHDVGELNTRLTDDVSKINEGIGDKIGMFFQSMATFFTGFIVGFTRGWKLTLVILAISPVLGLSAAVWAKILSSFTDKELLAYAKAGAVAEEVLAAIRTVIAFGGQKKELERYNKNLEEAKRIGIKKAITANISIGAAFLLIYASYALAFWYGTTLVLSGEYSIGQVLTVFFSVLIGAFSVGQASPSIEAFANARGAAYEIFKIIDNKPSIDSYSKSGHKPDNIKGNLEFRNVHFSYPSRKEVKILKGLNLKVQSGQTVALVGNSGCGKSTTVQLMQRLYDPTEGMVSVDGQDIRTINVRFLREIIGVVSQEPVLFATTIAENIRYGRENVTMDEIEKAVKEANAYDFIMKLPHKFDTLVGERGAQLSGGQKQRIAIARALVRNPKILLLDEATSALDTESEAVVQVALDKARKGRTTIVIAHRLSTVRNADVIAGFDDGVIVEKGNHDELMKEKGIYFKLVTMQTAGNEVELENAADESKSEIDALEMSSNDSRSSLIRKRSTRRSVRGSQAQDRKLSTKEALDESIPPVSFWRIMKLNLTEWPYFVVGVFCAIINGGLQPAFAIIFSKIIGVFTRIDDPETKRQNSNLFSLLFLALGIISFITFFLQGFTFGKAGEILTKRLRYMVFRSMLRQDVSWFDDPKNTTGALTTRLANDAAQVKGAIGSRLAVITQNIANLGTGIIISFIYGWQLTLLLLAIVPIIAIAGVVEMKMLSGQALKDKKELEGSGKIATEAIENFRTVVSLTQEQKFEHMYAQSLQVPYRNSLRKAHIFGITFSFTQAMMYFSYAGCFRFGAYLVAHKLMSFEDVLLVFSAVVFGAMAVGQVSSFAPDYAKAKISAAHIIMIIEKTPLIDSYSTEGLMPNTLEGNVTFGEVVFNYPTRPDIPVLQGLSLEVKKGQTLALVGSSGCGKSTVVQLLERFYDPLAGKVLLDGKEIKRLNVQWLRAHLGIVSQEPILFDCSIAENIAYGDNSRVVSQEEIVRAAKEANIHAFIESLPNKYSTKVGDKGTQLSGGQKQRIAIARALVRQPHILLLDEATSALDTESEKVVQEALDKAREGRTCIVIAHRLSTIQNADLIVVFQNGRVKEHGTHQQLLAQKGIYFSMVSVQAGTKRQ

inhibition (INH) [7]: 176%
inhibition (INH) [21]: 190%
inhibition (INH) [24]: Dose-Dependent Effect
inhibition (INH) [31]: Dose-Dependent Effect
SMILES: N#Cc1c2n(c3c(=O)n(-c4ccccc4)cnc13)CCCC2
Activity [1]: 75.2%
CI [2]: 0.631
Activity [3]: 5.4%
CI [4]: 0.08
Activity [5]: 77.8%
IC50 [6]: 6010 nM
Activity [8]: 6.6%
Activity [9]: 1.7%
selectivity ratio [10]: 4.83
viability at 0.25 µM [11]: 68.2%
Activity [12]: 4.1%
IC50 [13]: 60 nM
CI [14]: 0.025
IC50 [15]: 1170 nM
selectivity ratio [16]: 1.36
Activity [17]: 15.5%
IC50 [18]: 300 nM
Activity [19]: 13.4%
viability at 0.5 µM [20]: 70.3%
CI [22]: 1.7
Activity [23]: 5.5%
CI [25]: 1.9
Activity [26]: 13.6%
Activity [27]: 22.8%
Activity [28]: 1.2%
Activity [29]: 2.1%
fold change (FC) [30]: 15.57
Activity [32]: 18.9%
Activity [33]: 4.8%
Activity [34]: 18%
